# From patent publication US12071416B2, “Prodrugs of 4-( (1R, 3S)-6-chloro-3-phenyl-2, 3-dihydro-1H-inden-1-yl)-1,2, 2-trimethylpiperazine and 4-( (1R, 3S)-6-chloro-3-(phenyl-D5)-2, 3-dihydro-1H-inden-1-yl)-2, 2-dimethyl-1 (methyl-D3) piperazine” (H. Lundbeck A/S, priority 2018, dated 2024)
# Read-outs that look alike come from different tables or passages of the source.
# Assay: Plasma stability assay
# Type: in vitro ADME, human
# Procedure: Frozen human plasma (stored at −80° C.) was thawed in a water bath followed by centrifugation at 3200×g for 5 min to remove debris. The pH value of the supernatant was then measured and adjusted to 7.4±0.1 by adding 1% phosphoric acid or 1 N sodium hydroxide.
# For each test compound, 2 microL of dosing solution (50 microM for test compounds and 100 microM for positive control; propantheline bromide) were spiked into 98 microL of blank plasma to achieve a final concentration of 1 microM test compound and 2 microM positive control.
# The test compounds and positive control were incubated in duplicate with human plasma (final DMSO concentration <1%) in a water bath at 37° C. at six different time points (0, 0.5, 1, 2, 4 and 6 hr). At each corresponding time point the incubations were terminated by adding appropriate volume of quenching solution to stop the reaction.
# Afterwards, the plasma samples were briefly vortexed and subsequently centrifuged at 3200×g for 20 min. The supernatant was transferred into a 96-well plate and diluted with 200 microL of ultrapure water in the ratio of 1:2 prior to LC-MS/MS analysis. The peak area ratios (PAR) of analyte/internal standard was used to semi-quantitatively determine the concentration of test compounds and control compound. The percentage of test compound remaining at the individual time points relative to the 0 minute sample was reported.
# In the determination of in vitro elimination constant, ke, of the parent drug and controls, the analyte/internal standard peak area ratios were converted to percentage remaining with the following equation: […]
# The percentage formation of metabolite was calculated by the analyte/internal standard peak area ratios versus T0 (absolute) of metabolite drug and converted to percentage.
# The half-life (T1/2) of parent drug and control compounds were calculated from a log linear plot of analyte/internal standard peak area ratios versus time (T1/2=0.693/ke).
# Compounds 1a2, 1b2, 2a2, and 2b2 were incubated in human plasma as described above and half-lives of 0.5-1.5 h were determined with the formation of 15-35% of 4-((1R,3S)-6-chloro-3-phenyl-2,3-dihydro-1H-inden-1-yl)-1,2,2-trimethylpiperazine and 4-((1R,3S)-6-chloro-3-(phenyl-d5)-2,3-dihydro-1H-inden-1-yl)-2,2-dimethyl-1-(methyl-d3)piperazine, respectively.
# [1] = human plasma, pH 7.4, 37° C., 1 microM test compound, 0-6 hr, LC-MS/MS, read-out: half-life (T1/2) in human plasma
"half-life at 1 microM (human, plasma, pH 7.4)",half-life at 1 microM [1],Compound
0.5 to 1.5 h,,"[2H]c1c([2H])c([2H])c([C@@H]2C[C@@H](N3CC[N@@+](COC(=O)C(C)(C)C)(C([2H])([2H])[2H])C(C)(C)C3)c3cc(Cl)ccc32)c([2H])c1[2H].[Cl-] (single isomer, unassigned) [Compound 2b2]"
,0.5 to 1.5 h,"[2H]c1c([2H])c([2H])c([C@@H]2C[C@@H](N3CC[N@+](COC(=O)C(C)(C)C)(C([2H])([2H])[2H])C(C)(C)C3)c3cc(Cl)ccc32)c([2H])c1[2H].[Cl-] (single isomer, unassigned) [Compound 2a2]"
0.5 to 1.5 h,,"CC(C)(C)C(=O)OC[N@@+]1(C)CCN([C@@H]2C[C@@H](c3ccccc3)c3ccc(Cl)cc32)CC1(C)C.[Cl-] (single isomer, unassigned) [Compound 1b2]"
,0.5 to 1.5 h,"CC(C)(C)C(=O)OC[N@+]1(C)CCN([C@@H]2C[C@@H](c3ccccc3)c3ccc(Cl)cc32)CC1(C)C.[Cl-] (single isomer, unassigned) [Compound 1a2]"
